Measured values: PubChem BioAssay (NCI)
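Exposure lasted 48 hours, with cells grown in 96-well plates and compounds tested at five concentrations. GI50: concentration for 50% inhibition of growth. Definition used: TGI = concentration required for complete inhibition of growth.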

Columns and labels:
Assay in all cases: NCI anticancer screen, dose series, 48 h
COLO 205 colon = system: COLO 205 colon
OVCAR-3 ovarian = system: OVCAR-3 ovarian
SF-539 CNS = system: SF-539 CNS
IGROV1 ovarian = system: IGROV1 ovarian
PC-3 prostate = system: PC-3 prostate
CCRF-CEM leukemia = system: CCRF-CEM leukemia
OVCAR-8 ovarian = system: OVCAR-8 ovarian
DU-145 prostate = system: DU-145 prostate

Compound	GI50 (COLO 205 colon)	TGI (COLO 205 colon)	GI50 (OVCAR-3 ovarian)	TGI (OVCAR-3 ovarian)	GI50 (SF-539 CNS)	TGI (SF-539 CNS)	GI50 (IGROV1 ovarian)	TGI (IGROV1 ovarian)	GI50 (PC-3 prostate)	TGI (PC-3 prostate)	GI50 (CCRF-CEM leukemia)	TGI (CCRF-CEM leukemia)	GI50 (OVCAR-8 ovarian)	TGI (OVCAR-8 ovarian)	GI50 (DU-145 prostate)	TGI (DU-145 prostate)
Oc1cc(O)c2c(=S)cc(-c3ccc(Cl)cc3)oc2c1	15.3 µM	33.6 µM	1.52 µM	8.94 µM	3.31 µM	17.1 µM	0.533 µM	16.5 µM	2.84 µM	12.3 µM	4.02 µM	> 63.1 µM	3.3 µM	14.9 µM	4.09 µM	35.1 µM
COC(=O)c1ccc([N+](=O)[O-])c(O)c1		> 100 µM		> 100 µM		> 100 µM		> 100 µM		> 100 µM		> 100 µM		> 100 µM		> 100 µM
CC(=O)OC1CCC2(C)C(=CCC3C2CCC2(C)C(C(C)C(=O)O)CCC32)C1 (stereo not given)		> 100 µM		> 100 µM		> 100 µM		> 100 µM		> 100 µM		> 100 µM		> 100 µM		> 100 µM
O=S1(=O)CS(=O)(=O)OCCCO1		> 100 µM		> 100 µM		> 100 µM		> 100 µM		> 100 µM		> 100 µM		> 100 µM		> 100 µM
N#CN1CCC[C@H]1C(=O)N1CCc2c(-c3[nH]nc4ncccc34)cccc21			< 0.01 µM	< 0.01 µM	< 0.01 µM	< 0.01 µM	0.0862 µM	12.6 µM	< 0.01 µM	23.6 µM	< 0.01 µM	28.4 µM	< 0.01 µM	11 µM	0.018 µM	11.3 µM
CCOC(=O)C1=C(C)NC2SC(=O)/C(=C\c3ccccc3)N2C1c1ccccc1 (stereo not given)	> 100 µM	> 100 µM	> 100 µM	> 100 µM	> 100 µM	> 100 µM	> 100 µM	> 100 µM	31 µM	> 100 µM	14.8 µM	> 100 µM	> 100 µM	> 100 µM	> 100 µM	> 100 µM
CC(=O)OCC1OC(OC2=C(CC=C(Cl)Cl)C(=O)c3ccccc3C2=O)C(OC(C)=O)C(OC(C)=O)C1OC(C)=O (stereo not given)	13.6 µM	36.3 µM	2.27 µM	4.88 µM	4.09 µM	14.6 µM	0.869 µM	3.11 µM	2.66 µM	11.5 µM	0.894 µM	> 100 µM	2.96 µM	8.29 µM	11.8 µM	24.1 µM
CCC1CC(=O)N(SCC(N)C(=O)O)C1=O (stereo not given)		> 100 µM		> 100 µM		> 100 µM		> 100 µM		> 100 µM		> 100 µM		> 100 µM		> 100 µM
OC(COc1cccc2ccccc12)CN1CCN(c2ccccc2)CC1 (stereo not given)	16.4 µM	30.9 µM	15.1 µM	28.8 µM	18.1 µM	33.9 µM	14.6 µM	29.5 µM	12.5 µM	29 µM	17.9 µM	53.2 µM	17.3 µM	32.1 µM	17.7 µM	31.9 µM
